# According to patent US11827663B2, “Use of UAP inhibitors to inhibit flux through the hexosamine biosynthetic pathway” (The Johns Hopkins University, priority 2014, dated 2023):
# “Also recorded” adds a separate entry of the source. Read-outs that look alike come from different tables or passages of the source.
# How the values were obtained:
# Format in all cases: cell-based
# SW1990 cells = test: Cell count / cell proliferation assay in SW1990 cells; settings: for IC50: Homo sapiens
# Description: FIG. 3 depicts the result of cell count assays after two days of incubation with an exemplary compound, Ac4Glc2Bz. The cells treated with the compound are, respectively, SW1990 and PANC-1, which are pancreatic cancer cell lines. Meanwhile, control samples were treated with solvent vehicle of 2.5 μL DMSO per 1 mL of medium.
# FIGS. 5A and 5B show the results of cell toxicity experiments that were conducted on SW1990 and PANC-1 cells with the analogs indicated. Cells were counted after incubation with each analog for 48 hours. Cell counts were then normalized to controls, data was log transformed, and IC50 values were calculated. […]
# Cells were incubated at a range of concentrations of the UAP inhibitors (typically at 0, 10, 25, 50, 100, and 150 μM) and the number of cells were quantified, typically by automated counting (e.g., with a Coulter Counter Z2 instrument) after 1, 2, 3, or 5 days of exposure.
# [1] = system: O-GlcNAc protein modification; test: Western blot of O-GlcNAcylation with CTD110.6; settings: 612, GS1049, SW1990 and PANC-1 cells, 40 μM or 60 μM, 48 h
# Description: Exemplary CTD110.6 protein expression results were obtained for 612 cells (FIG. 17A); GS1049 cells (FIG. 17B); SE1990 cells (FIG. 17C); and PANC-1 cells (FIG. 17D) with either 40 μM or 60 μM Ac4Glc2Bz.
# For example, as shown in FIG. 17A-17D, Ac4Glc2Bz could change O-GlcNAcylation in a dose-dependent manner in each cell of 612 cells (FIG. 17A); GS1049 (FIG. 17B); SW1990 (FIG. 17C) and PANC-1 (FIG. 17D). In particular, the band intensities of CTD110.6 (anti-O-GlcNAc antibody) from each treated cell decreased as the concentrations of Ac4Glc2Bz treatment were increased. 3×10^5 cells were plated in 6-well plates, with 2 wells per condition tested as indicated in FIG. 17A-D. After 48 h, proteins were collected after freezing for 15 minutes at −80° C. using extraction buffer consisting of 20 mM TrisHCl, pH 7.5, 1% v/v NP-40, 2 mM EDTA, 0.1 mM phenylmethylsulfonyl fluoride, phosphatase inhibitor cocktails 2 and 3 (1×) (SIGMA), ThiametG (10 nM) (Cayman Chemical), β-hexosaminidase inhibitor (5 μM) (Millipore), sodium fluoride (1 mM), and β-glycerophosphate (1 mM). The lysed cells were scraped, collected, and incubated on ice for 20 minutes while vortexing for 5-10 s ever 5 minutes. Samples were sonicated for 5 seconds and then centrifuged at 14,000 RPM for 20 minutes at 4° C. The supernatant was removed, normalized to 1 mg/mL, and 20 μg was loaded onto a 7.5% SDS-PAGE gel. […]
# [2] = system: N-glycans of SW1990 cells; test: Mass spectrometry of cell surface N-glycans in SW1990 cells; settings: 100 μM
# Description: FIGS. 18A-18B present mass spectrometry results showing levels of N-glycans (lower molecular weight glycans) and high molecular weight glycans following treatments with Ac4Glc2Bz (100 μM) in SW1990 cells.
# (a) Cell surface N-Glycans. After two days of incubation with analog (a length of time sufficient to observe maximal “metabolic glycoengineering” effects (Biotechnol Bioeng 85, 394-405 (2004); Biotechnol Bioeng 109, 992-1006 (2012); Mol Cell Proteomics, 10.1074/mcp.M1112.017558 (2012); Glycobiology 19, 1382-1401 (2009); Nature Protocols 2, 1585-1602 (2007)), cells treated with PNGaseF, N-glycans were collected, and analyzed by following a recently developed protocol that optimizes sialic acid detection and quantification (Anal Chem 85, 3606-3613 (2013)). As previously developed, automated methods were used to analyze mass spectroscopy data to detect phenyl-modified sugars in glycan structures. This analysis was valuable to monitor whether any phenyl-modified analog was biosynthetically processed (instead or in addition to inhibiting UAP) and incorporated into cellular glycans.
# For example, as shown in FIGS. 18A-18B, SW1990 cells were treated with Ac4Glc2Bz (100 μM), and the cell extracts were analyzed by mass spectrometry.
# c-MYC = test: Western blot of c-MYC; settings: SW1990, PANC-1, 612 and GS1049 cells, 125 μM or 250 μM
# Description: Proteins from treated cells were obtained by lysing cells in RIPA buffer (SIGMA) supplemented with Protease Inhibitor Cocktail (1:100), Phosphatase Inhibitor Cocktail 2 (SIGMA) (1:100), and Phosphatase Inhibitor Cocktail 3 (SIGMA)(1:100). SDS-PAGE was performed followed by western blotting for c-MYC (Cell Signaling) and β-actin (SIGMA).
# global DNA methylation = test: Global DNA methylation assay in SW1990 cells
# Description: In 6-well plates, SW1990 cells were seeded (3×10^5) and were treated with Ac4Glc2Bz at the indicated concentrations. DNA from treated cells was isolated using a FitAmp Blood and Cultured Cell DNA Extraction Kit (Epigentek) followed by colormetric determination of global methylation using a MethylFlash™ Methylated DNA Quantification Kit (Epigentek). […] For instance, by reducing flux through the HBP, UAP inhibitors could exert epigenetic effects, as global DNA methylation was increased as shown in FIG. 23. Although hypermethylation of promoter sites of tumor suppressors might be common in cancer at a global scale, cancer cells are almost always characterized by hypomethylation, which the current UAP inhibitors appeared to be reversing (Epigenomics. 2009 December; 1(2): 239-259; Oncogene. 12 Aug. 2002, Volume 21, Number 35, Pages 5400-5413).
smiles,measurement,setting,value
CC(=O)OCC1OC(OC(C)=O)[C@@H](NC(=O)c2ccccc2)[C@@H](OC(C)=O)[C@@H]1OC(C)=O (some centres unmarked) [Ac4Glc2Bz],IC50,"SW1990 cells; SW1990, 48 h, cell count after two days of incubation, FIG. 3, read-out: IC50 of reduction of cell numbers, SW1990",~50 µM
same,IC50,"SW1990 cells; SW1990, cells counted after 48 hours incubation, normalized to controls, read-out: Estimated IC50 values, SW1990",25.8 ± 1.5 µM
same,effect on SW1990 cell numbers / proliferation,SW1990 cells; in words,lowest IC50 value
same,"O-GlcNAcylation, band intensities of CTD110.6",[1],decreased; also recorded: changed
same,amplitude of peaks for N-glycans (lower molecular weight glycans),[2],not significantly reduced
same,peaks for high molecular weight glycans,[2],quantitative changes were identified
same,c-MYC expression,c-MYC,reduce c-MYC expression in a dose-dependent manner; also recorded: altered
same,global DNA methylation,global DNA methylation,promote global DNA methylation at higher doses
